Test results published in patent publication US20240041977A1, “ANNEXIN A1 N-TERMINAL PEPTIDE FORMULATIONS AND METHODS” (ResoTher Pharma A/S, priority 2020, published 2024).
Where “and” joins values, the source holds several entries; their conditions need not be identical. Equal values may be shown once. Marks after values point to notes of the source that are not given here. Ends that are not written are not given here.

Tests used:
[1] = ThT assay lag-time (fibrillation propensity, physical stability); assay type: physicochemical
Text: ThT is widely used to visualize and quantify the presence of misfolded peptide and protein aggregates called amyloids or fibrils. ThT is a fluorescent molecule that binds to inter molecular beta-sheets in peptides and proteins (here AnxA1). […] A weaker fluorescence intensity is indicative of less amyloids or fibrils present with fewer intermolecular beta-sheets where ThT can bind. Some peptides have a tendency to form fibrils and amyloids and the propensity is dependent on the formulation conditions in an unpredictable manor. Fibrillation is a stochastic process and to avoid long analysis times and both false negatives and positive results, shear stress is introduced to the sample by rigorous rotation in microtiter plates while continuously monitoring the fluorescence emission at approximately 486 nm. An increase in the fluorescence is an indication of the formation of amyloids or fibrils and the time it takes for the fluorescence to start increasing is known as the lag-time. A faster (short) lag-time is an indication of higher propensity for the peptide to degrade by formation of fibrils or amyloids. A ThT fluorescence of 50 AU at t=0 is considered noise or background. Lag time is reported as the time it takes for the signal intensity to exceed 50 AU. All samples for the ThT assay were filtered through cellulose acetate filters ([…], Ø=13 mm, rinsed with MilliQ® water prior to filtration). For each sample, 20 μL ThT of a 1 mM solution was added to 1 mL peptide solution. From this sample mixture, 200 μL was transferred into n wells in a 96 well microtiter plate (n=3-6). 96-well NUNC plates Bottom optics and Sealing tape, Thermo Scientific™ Nunc™ Sealing Tapes, was used. Lag-time is reported as an average of n samples. A fluorescence plate reader (CLARIOstar® Plus, BMG Labtech) was used for the experiments with the following setting: Excitation wavelength 450 nm; Dichroic filter 465 nm; Emission wavelength 486 nm; Focal height 3.5 mm; Gain 1000; […]; […]; Number of flashes per well 20; Temperature 25° C.; Shake mode orbital, Frequency of 300 rpm, 200 s, and shake after each cycle. If possible, the average of all ThT data replicates are used for ThT lag-time determination. In case of very stochastic data, worst-case data is used for lag-time evaluation. ThT lag-time was determined using either a 1-step or 2-step sigmoidal curve.

[2] = Solubility: concentration of AnxA1 in solution/supernatant by UV-VIS; assay type: physicochemical
Method: The concentration of AnxA1 was determined using UV-VIS spectroscopy using a Nanodrop 2000c from Thermo scientific and an extinction coefficient of A280^0.1%=1.64 ml mg^−1cm^−1.
Three samples of AnxA1 was prepared at pH 9 in Milli Q® water, 0.9% NaCl (154 mM) at concentrations 3.3, 1.6 and 0.8 mg/mL, respectively. pH was adjusted by addition of 0.1 M NaOH to each of the samples and the concentration determined after centrifugation using UV-VIS spectroscopy.
AnxA1 samples are dissolved in Milli Q® water or 5% mannitol in Milli Q® water to approximately 18 mg/mL and pH was adjusted using 1.0 M HCl and NaOH. After dissolution visual appearance was noted and a photograph was taken, see FIG. 6 and Table 4, and a sample was cleared by centrifugation and the concentration determined in the supernatant using UV-VIS spectroscopy.

[3] = saline at neutral pH around 7.3

In the case of “AMVSEFLKQAWFIENEEQEYVQTLKSSKGGPGSAVSPYPTFNPSSDV-NH2 [AnxA1]”, the Lag-time ([1]; AnxA1 4.7 mg/mL, mannitol 5 wt.%, glycylglycine 10 mM, pH 8.0, no increase in fluorescence within 65 hours) is reported as > 65* hours, the Lag-time ([1]; AnxA1 4.7 mg/mL, sorbitol 5 wt.%, Tris 10 mM, pH 7.5) is reported as 10.8 h and the Lag-time ([1]; AnxA1 4.7 mg/mL, sucrose 10 wt.%, Tris 10 mM, pH 7.5) is reported as 11.1 h. The Lag-time ([1]; AnxA1 4.7 mg/mL, sucrose 10 wt.%, glycyl-glycine 30 mM, pH 8.0 (two samples)) was >65 h and 50 h, the Lag-time ([1]; AnxA1 4.8 mg/mL, mannitol 5 wt.%, histidine 10 mM, pH 6.6) was 42.1 h and the Lag-time ([1]; AnxA1 4.8 mg/mL, sorbitol 5 wt.%, histidine 10 mM, pH 6.7) was 21.3 h. For the same substance, the Lag-time ([1]; AnxA1 4.8 mg/mL, sucrose 10 wt.%, glycylglycine 10 mM, pH 7.9, no increase in fluorescence within 65 hours) was > 65* hours, the Lag-time ([1]; AnxA1 4.8 mg/mL, sucrose 10 wt.%, histidine 10 mM, pH 6.6) was 48.8 h and the Avg. lag-time ([1]; AnxA1 5.0 mg/mL, 0.9% NaCl in Milli Q water, pH 7.3) was 2.7 h. The Lag-time ([1]; AnxA1 5 mg/mL, tonicity 80%, mannitol 3.2 wt.%, sucrose 0.8 wt.%, NaHCO3 10 mM, pH 8.41) was under 60 h, the Lag-time ([1]; AnxA1 5 mg/mL, tonicity 80%, mannitol 3.2 wt.%, sucrose 0.8 wt.%, glycylglycine 10 mM, pH 8.40) was under 60 h and the Lag-time ([1]; AnxA1 5 mg/mL, tonicity 100%, mannitol 4.0 wt.%, sucrose 1.0 wt.%, NaHCO3 10 mM, pH 8.40) was under 60 h. For the same substance, the Lag-time ([1]; AnxA1 5 mg/mL, tonicity 100%, mannitol 4.0 wt.%, sucrose 1.0 wt.%, glycylglycine 10 mM, pH 8.39) was under 60 h, the Lag-time ([1]; AnxA1 5 mg/mL, tonicity 120%, mannitol 4.8 wt.%, sucrose 1.2 wt.%, NaHCO3 10 mM, pH 8.40) was under 60 h and the Lag-time ([1]; AnxA1 5 mg/mL, tonicity 120%, mannitol 4.8 wt.%, sucrose 1.2 wt.%, glycylglycine 10 mM, pH 8.41) was under 60 h. It also gave a Lag-time ([1]; AnxA1 5 mg/mL, tonicity 200%, mannitol 8.0 wt.%, sucrose 2.0 wt.%, NaHCO3 10 mM, pH 8.44) of under 60 h, a Lag-time ([1]; AnxA1 5 mg/mL, tonicity 200%, mannitol 8.0 wt.%, sucrose 2.0 wt.%, glycylglycine 10 mM, pH 8.40) of under 60 h and an Avg. lag-time ([1]; AnxA1 6.1 mg/mL in Milli-Q water, pH 7.4) of 29.6 h. The Avg. lag-time ([1]; AnxA1 6.4 mg/mL, 0.9% NaCl in Milli Q water, pH 7.3) was 0 h, the Avg. lag-time ([1]; AnxA1 7.6 mg/mL, 0.9% NaCl in Milli Q water, pH 7.3) was 0 h and the Lag-time ([1]; AnxA1 7.7 mg/mL, sucrose 10 wt.%, glycyl-glycine 50 mM, pH 8.5) was 29.5 h. For the same substance, the Lag-time ([1]; AnxA1 7.8 mg/mL, mannitol 4 wt.%, sucrose 2.5 wt.%, glycyl-glycine 50 mM, pH 8.5) was 31.5 h, the Lag-time ([1]; AnxA1 7.9 mg/mL, sucrose 10 wt.%, glycyl-glycine 10 mM, pH 7.5) was 23.8 h and the Avg. lag-time ([1]; AnxA1 8.0 mg/mL in Milli-Q water, pH 7.4) was 11.5 h. The Lag-time ([1]; AnxA1 8.0 mg/mL, mannitol 4 wt.%, sucrose 2.5 wt.%, glycyl-glycine 10 mM, pH 7.5) was 15.1 h, the Lag-time ([1]; AnxA1 8.0 mg/mL, mannitol 4 wt.%, sucrose 2.5 wt.%, glycyl-glycine 10 mM, pH 8.3) was over 65 h and the Lag-time ([1]; AnxA1 8.0 mg/mL, mannitol 4 wt.%, sucrose 2.5 wt.%, glycyl-glycine 50 mM, pH 7.6) was 3.3 h. For the same substance, the Lag-time ([1]; AnxA1 8.0 mg/mL, mannitol 5 wt.%, glycyl-glycine 50 mM, pH 7.5) was 3.1 h, the Lag-time ([1]; AnxA1 8.0 mg/mL, mannitol 5 wt.%, glycyl-glycine 50 mM, pH 8.5) was 41.7 h and the Lag-time ([1]; AnxA1 8.1 mg/mL, mannitol 5 wt.%, glycyl-glycine 10 mM, pH 7.4) was 13.7 h. It also gave a Lag-time ([1]; AnxA1 8.1 mg/mL, sucrose 10 wt.%, glycyl-glycine 10 mM, pH 8.2) of over 65 h, a Lag-time ([1]; AnxA1 8.4 mg/mL, mannitol 5 wt.%, glycyl-glycine 10 mM, pH 8.2) of 41 h and an Avg. lag-time ([1]; AnxA1 20 mg/mL (estimated from amount weighed, gel-like texture), 0.9% NaCl, pH 8.1 (not considered valid)) of 0 h. The lag-time ([1]; Example 11 composition at pH 7.5) was 35 h and 34.7 h, the lag-time ([1]; Milli Q water around neutral pH, no addition of salt) was over 50 h and the “fibrillation in ThT assay” value ([1]; NaHCO3 or glycylglycine buffer at 20% hypotonicity, and at 20% and 100% hypertonicity) was “No fibrillation was observed”. The Lag-time ([1]; all samples containing 10 mM glycyl-glycine, pH 8, independent of AnxA1 concentration (1.5-4.8 mg/mL) and isotonicity modifier) was over 65 h, the fibrillation propensity ([1]; concentrations ≥5 mg/mL, 0.9% NaCl in Milli Q water, around neutral pH, degradation initiated before the analysis is started) was “very high fibrillation propensity” and the “fibrillation in ThT assay” value ([1]; positive control sample in 0.9% saline) was “Fibrillation is observed”. For the same substance, the fibrillation propensity [1, 3] was “very high fibrillation propensity”, the solubility thermodynamic ([2]; 0.9% NaCl (154 mM) in Milli Q water, saline or isotonic, 20 mg freeze-dried AnxA1 per mL 0.9% NaCl (154 mM) in Milli Q, neutral pH, over night at room temperature on rotation, spun down) was about 170 µg/mL and the “solubility (concentration A280 as a function of pH)” value ([2]; AnxA1 3.3, 1.6 and 0.8 mg/mL in MiliQ water, 0.9% NaCl (154 mM), below pH 6.0) was “very low”. The solubility [2, 3] was “poorly soluble”.
